Experiments:
Settings in all cases: compound 10.0 µM
PLK3 (human) = PLK3 (human) (UniProt Q9H4B4)
CDK17 (human) = CDK17 (human) (UniProt Q00537)
STK17A (human) = STK17A (human) (UniProt Q9UEE5)
IKBKB (human) = IKBKB (human) (UniProt O14920)
MYO3B (human) = MYO3B (human) (UniProt Q8WXR4)
BRSK1 (human) = BRSK1 (human) (UniProt Q8TDC3)
MET (human) = MET (human) (UniProt P08581)
CPK1 (P.falciparum) = system: CPK1 (P.falciparum)
FGFR4 (human) = FGFR4 (human) (UniProt P22455)
MLTK (human) = MLTK (human) (UniProt Q9NYL2)
FGR (human) = FGR (human) (UniProt P09769)
Chain of FGR (human) (P09769 whole entry, looked up): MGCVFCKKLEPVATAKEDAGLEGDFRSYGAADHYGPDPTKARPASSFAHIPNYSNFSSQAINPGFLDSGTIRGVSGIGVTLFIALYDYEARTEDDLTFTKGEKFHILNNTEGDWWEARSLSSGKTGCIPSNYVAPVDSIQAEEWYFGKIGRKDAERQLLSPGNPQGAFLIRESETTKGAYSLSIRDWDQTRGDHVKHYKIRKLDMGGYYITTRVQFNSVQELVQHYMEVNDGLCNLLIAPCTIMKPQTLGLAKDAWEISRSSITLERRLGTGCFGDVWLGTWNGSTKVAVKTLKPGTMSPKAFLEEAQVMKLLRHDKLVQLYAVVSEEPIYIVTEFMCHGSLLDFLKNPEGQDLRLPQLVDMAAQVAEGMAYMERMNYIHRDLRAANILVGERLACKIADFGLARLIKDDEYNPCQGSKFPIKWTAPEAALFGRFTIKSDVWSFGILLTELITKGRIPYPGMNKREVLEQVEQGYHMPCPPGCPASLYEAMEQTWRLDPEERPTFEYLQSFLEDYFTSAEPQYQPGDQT

RIPK2 (human) = RIPK2 (human) (UniProt O43353)
MAP3K11 (human) = MAP3K11 (human) (UniProt Q16584)
STK4 (human) = STK4 (human) (UniProt Q13043)
GRK1 (human) = GRK1 (human) (UniProt Q15835)
Chain of GRK1 (human) (Q15835 whole entry, looked up): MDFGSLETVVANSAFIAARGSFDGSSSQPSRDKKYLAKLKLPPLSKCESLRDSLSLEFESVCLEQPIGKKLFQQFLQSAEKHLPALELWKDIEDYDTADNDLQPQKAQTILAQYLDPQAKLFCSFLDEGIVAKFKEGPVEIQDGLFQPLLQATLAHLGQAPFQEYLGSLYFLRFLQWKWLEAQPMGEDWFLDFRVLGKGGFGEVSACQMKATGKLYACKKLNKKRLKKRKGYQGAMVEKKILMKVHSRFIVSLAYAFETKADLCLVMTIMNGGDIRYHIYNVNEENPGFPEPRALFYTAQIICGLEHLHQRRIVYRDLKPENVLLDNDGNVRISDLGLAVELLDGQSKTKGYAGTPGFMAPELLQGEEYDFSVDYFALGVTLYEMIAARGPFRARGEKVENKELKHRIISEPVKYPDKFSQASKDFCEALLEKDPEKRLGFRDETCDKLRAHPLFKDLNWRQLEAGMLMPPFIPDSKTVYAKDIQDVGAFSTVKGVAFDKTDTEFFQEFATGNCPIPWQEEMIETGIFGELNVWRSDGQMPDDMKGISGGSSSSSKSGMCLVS

MAPK6 (human) = MAPK6 (human) (UniProt Q16659)
STK10 (human) = STK10 (human) (UniProt O94804)
SRPK2 (human) = SRPK2 (human) (UniProt P78362)
TEC (human) = TEC (human) (UniProt P42680)
MAP4K3 (human) = MAP4K3 (human) (UniProt Q8IVH8)
PAK4 (human) = PAK4 (human) (UniProt O96013)
CAMK1D (human) = CAMK1D (human) (UniProt Q8IU85)
Chain of CAMK1D (human) (Q8IU85 whole entry, looked up): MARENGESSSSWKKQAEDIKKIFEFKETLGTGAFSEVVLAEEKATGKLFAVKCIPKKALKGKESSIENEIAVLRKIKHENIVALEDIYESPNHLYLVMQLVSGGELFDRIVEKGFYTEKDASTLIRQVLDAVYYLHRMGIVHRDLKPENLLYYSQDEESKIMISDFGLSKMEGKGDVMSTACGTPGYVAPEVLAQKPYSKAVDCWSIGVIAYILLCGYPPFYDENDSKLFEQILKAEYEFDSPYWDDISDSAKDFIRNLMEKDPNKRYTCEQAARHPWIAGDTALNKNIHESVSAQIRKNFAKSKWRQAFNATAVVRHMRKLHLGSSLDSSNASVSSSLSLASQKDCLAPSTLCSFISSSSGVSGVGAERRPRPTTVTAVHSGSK

HCK (human) = HCK (human) (UniProt P08631)
EPHA8 (human) = EPHA8 (human) (UniProt P29322)
MAP4K4 (human) = MAP4K4 (human) (UniProt O95819)
MAP3K1 (human) = MAP3K1 (human) (UniProt Q13233)
LIMK1 (human) = LIMK1 (human) (UniProt P53667)
CDK11B (human) = CDK11B (human) (UniProt P21127)
INSRR (human) = INSRR (human) (UniProt P14616)
CDK3 (human) = CDK3 (human) (UniProt Q00526)
Chain of CDK3 (human) (Q00526 whole entry, looked up): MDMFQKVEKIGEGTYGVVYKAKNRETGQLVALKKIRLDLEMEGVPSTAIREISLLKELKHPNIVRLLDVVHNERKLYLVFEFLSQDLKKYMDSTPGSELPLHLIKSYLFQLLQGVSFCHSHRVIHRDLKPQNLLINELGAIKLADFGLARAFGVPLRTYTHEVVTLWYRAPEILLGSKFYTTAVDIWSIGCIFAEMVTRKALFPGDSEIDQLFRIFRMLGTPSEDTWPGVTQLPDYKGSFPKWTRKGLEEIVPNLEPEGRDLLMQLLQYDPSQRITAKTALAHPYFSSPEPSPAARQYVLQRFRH

CSNK1E (human) = CSNK1E (human) (UniProt P49674)
SBK1 (human) = SBK1 (human) (UniProt Q52WX2)
IRAK3 (human) = IRAK3 (human) (UniProt Q9Y616)
Chain of IRAK3 (human) (Q9Y616 whole entry, looked up): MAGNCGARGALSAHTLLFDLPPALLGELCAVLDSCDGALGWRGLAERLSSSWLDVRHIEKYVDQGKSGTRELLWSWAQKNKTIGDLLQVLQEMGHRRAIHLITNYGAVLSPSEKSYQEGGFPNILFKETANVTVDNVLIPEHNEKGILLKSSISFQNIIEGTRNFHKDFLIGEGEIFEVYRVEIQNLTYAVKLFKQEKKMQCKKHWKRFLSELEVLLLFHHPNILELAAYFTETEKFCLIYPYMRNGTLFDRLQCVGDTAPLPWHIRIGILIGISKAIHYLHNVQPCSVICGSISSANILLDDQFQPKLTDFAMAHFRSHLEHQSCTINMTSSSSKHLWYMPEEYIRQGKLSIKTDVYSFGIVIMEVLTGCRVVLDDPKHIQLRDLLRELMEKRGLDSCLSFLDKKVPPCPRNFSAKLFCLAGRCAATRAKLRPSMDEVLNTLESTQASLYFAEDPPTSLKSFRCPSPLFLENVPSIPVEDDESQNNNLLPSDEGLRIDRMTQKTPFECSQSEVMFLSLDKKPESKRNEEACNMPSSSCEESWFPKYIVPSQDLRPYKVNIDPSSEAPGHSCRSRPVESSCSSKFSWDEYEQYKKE

PTK2B (human) = PTK2B (human) (UniProt Q14289)
CHUK (human) = CHUK (human) (UniProt O15111)
PTK2 (human) = PTK2 (human) (UniProt Q05397)
CSNK1G3 (human) = CSNK1G3 (human) (UniProt Q9Y6M4)
PIM1 (human) = PIM1 (human) (UniProt P11309)
NEK9 (human) = NEK9 (human) (UniProt Q8TD19)
IRAK4 (human) = IRAK4 (human) (UniProt Q9NWZ3)
Chain of IRAK4 (human) (Q9NWZ3 whole entry, looked up): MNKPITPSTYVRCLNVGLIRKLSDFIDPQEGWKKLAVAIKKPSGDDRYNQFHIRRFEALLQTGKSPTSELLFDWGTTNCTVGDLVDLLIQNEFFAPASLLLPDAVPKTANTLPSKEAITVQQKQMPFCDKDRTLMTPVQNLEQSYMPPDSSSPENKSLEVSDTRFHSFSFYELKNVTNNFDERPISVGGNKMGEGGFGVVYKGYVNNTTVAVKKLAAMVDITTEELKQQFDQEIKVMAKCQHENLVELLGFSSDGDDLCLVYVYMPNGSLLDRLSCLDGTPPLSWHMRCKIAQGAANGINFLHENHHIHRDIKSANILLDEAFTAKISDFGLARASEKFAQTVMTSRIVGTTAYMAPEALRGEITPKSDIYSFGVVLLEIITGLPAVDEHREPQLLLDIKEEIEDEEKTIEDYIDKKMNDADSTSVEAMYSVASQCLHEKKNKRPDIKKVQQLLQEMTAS

MAP2K7 (human) = MAP2K7 (human) (UniProt O14733)
ACVR1 (human) = ACVR1 (human) (UniProt Q04771)

Chain of FGFR4 (human) (P22455 whole entry, looked up): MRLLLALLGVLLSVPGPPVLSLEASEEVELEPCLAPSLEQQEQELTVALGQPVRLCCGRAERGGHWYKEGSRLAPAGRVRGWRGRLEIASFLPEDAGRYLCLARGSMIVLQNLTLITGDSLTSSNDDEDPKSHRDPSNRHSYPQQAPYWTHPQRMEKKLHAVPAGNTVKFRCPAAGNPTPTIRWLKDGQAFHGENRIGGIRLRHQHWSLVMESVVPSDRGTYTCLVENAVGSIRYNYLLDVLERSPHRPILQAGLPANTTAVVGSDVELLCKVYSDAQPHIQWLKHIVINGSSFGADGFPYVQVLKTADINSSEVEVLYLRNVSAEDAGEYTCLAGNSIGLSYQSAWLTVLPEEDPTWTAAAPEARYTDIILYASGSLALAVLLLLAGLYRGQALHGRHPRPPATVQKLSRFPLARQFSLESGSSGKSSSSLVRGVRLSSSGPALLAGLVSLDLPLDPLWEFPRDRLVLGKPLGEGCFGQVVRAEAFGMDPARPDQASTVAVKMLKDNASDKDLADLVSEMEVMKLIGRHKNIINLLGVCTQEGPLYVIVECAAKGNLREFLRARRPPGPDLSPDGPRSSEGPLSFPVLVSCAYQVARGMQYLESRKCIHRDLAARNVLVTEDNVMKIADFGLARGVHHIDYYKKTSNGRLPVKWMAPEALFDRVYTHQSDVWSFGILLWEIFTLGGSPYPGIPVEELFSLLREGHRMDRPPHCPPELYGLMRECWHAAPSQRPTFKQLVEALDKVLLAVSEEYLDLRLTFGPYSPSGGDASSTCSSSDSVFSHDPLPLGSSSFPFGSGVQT
Chain of MET (human) (P08581 whole entry, looked up): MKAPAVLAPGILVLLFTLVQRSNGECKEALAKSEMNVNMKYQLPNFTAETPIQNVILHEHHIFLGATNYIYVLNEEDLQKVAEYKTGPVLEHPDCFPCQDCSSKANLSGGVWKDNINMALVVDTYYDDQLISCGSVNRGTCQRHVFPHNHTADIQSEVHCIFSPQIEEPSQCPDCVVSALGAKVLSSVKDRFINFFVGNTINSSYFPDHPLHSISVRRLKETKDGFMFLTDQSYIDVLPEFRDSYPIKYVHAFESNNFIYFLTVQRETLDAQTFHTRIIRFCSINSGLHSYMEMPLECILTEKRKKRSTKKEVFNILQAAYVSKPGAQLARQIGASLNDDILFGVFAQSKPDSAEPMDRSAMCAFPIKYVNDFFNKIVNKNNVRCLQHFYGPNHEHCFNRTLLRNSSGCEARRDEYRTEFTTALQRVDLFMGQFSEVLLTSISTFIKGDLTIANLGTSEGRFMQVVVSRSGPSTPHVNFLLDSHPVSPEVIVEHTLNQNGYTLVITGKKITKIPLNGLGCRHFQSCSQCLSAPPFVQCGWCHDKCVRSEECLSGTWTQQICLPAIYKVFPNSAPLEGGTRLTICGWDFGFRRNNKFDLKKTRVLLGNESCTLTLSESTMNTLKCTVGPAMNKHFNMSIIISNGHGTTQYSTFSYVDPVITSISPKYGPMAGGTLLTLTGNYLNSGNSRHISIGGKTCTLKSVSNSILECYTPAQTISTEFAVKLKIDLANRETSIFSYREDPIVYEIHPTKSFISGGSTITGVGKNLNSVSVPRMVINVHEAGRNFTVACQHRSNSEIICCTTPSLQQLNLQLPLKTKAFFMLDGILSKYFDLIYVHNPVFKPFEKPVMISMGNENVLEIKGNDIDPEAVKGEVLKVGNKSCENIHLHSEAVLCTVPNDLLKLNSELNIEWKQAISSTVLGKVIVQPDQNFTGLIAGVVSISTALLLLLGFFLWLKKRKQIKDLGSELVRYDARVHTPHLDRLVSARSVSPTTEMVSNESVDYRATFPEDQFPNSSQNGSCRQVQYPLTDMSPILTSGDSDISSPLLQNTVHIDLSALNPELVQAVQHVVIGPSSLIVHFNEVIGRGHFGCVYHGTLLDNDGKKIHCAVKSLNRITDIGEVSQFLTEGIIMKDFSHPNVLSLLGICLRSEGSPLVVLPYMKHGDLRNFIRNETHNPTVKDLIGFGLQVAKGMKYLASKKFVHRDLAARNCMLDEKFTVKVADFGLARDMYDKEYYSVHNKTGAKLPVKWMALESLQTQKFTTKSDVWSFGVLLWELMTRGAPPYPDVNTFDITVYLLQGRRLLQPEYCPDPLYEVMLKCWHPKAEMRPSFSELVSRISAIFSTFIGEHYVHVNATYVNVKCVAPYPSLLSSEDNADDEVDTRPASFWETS

With `CNC(=O)c1cc(Oc2ccc(NC(=O)Nc3ccc(Cl)c(C(F)(F)F)c3)cc2)cc[n+]1[O-]` the per cent of control (PLK3 (human)) was 100%, the per cent of control (CDK17 (human)) was 7.7% and the per cent of control (STK17A (human)) was 66%. For the same compound, the per cent of control (IKBKB (human)) was 61%, the per cent of control (MYO3B (human)) was 17% and the per cent of control (BRSK1 (human)) was 76%. For the same compound, the per cent of control (MET (human)) was 16%, the per cent of control (CPK1 (P.falciparum)) was 0.15% and the per cent of control (FGFR4 (human)) was 39%. For the same compound, the per cent of control (MLTK (human)) was 0.85%, the per cent of control (FGR (human)) was 28% and the per cent of control (RIPK2 (human)) was 9.8%. The per cent of control (MAP3K11 (human)) was 89%, the per cent of control (STK4 (human)) was 42% and the per cent of control (GRK1 (human)) was 100%. It also gave a per cent of control (MAPK6 (human)) of 100%, a per cent of control (STK10 (human)) of 0% and a per cent of control (SRPK2 (human)) of 73%. It also gave a per cent of control (TEC (human)) of 68%, a per cent of control (MAP4K3 (human)) of 12% and a per cent of control (PAK4 (human)) of 100%. It also gave a per cent of control (CAMK1D (human)) of 75%, a per cent of control (HCK (human)) of 8.8% and a per cent of control (EPHA8 (human)) of 0.3%. For the same compound, the per cent of control (MAP4K4 (human)) was 0.5%, the per cent of control (MAP3K1 (human)) was 100% and the per cent of control (LIMK1 (human)) was 8.5%. The per cent of control (CDK11B (human)) was 100%, the per cent of control (INSRR (human)) was 86% and the per cent of control (CDK3 (human)) was 13%. The per cent of control (CSNK1E (human)) was 100%, the per cent of control (SBK1 (human)) was 100% and the per cent of control (IRAK3 (human)) was 91%. The per cent of control (PTK2B (human)) was 91%, the per cent of control (CHUK (human)) was 6.5% and the per cent of control (PTK2 (human)) was 97%. The per cent of control (CSNK1G3 (human)) was 96%, the per cent of control (PIM1 (human)) was 100% and the per cent of control (NEK9 (human)) was 35%. The per cent of control (IRAK4 (human)) was 100%, the per cent of control (MAP2K7 (human)) was 63% and the per cent of control (ACVR1 (human)) was 100%.
Compound `CNC(=O)c1cc(Oc2ccc(NC(=O)Nc3ccc(Cl)c(C(F)(F)F)c3)cc2)ccn1` has a per cent of control (PLK3 (human)) of 100%, a per cent of control (CDK17 (human)) of 13% and a per cent of control (STK17A (human)) of 58%. It also gave a per cent of control (IKBKB (human)) of 100%, a per cent of control (MYO3B (human)) of 38% and a per cent of control (BRSK1 (human)) of 100%. It also gave a per cent of control (MET (human)) of 74%, a per cent of control (CPK1 (P.falciparum)) of 0.8% and a per cent of control (FGFR4 (human)) of 43%. The per cent of control (MLTK (human)) was 0.6%, the per cent of control (FGR (human)) was 41% and the per cent of control (RIPK2 (human)) was 5.3%. It also gave a per cent of control (MAP3K11 (human)) of 74%, a per cent of control (STK4 (human)) of 96% and a per cent of control (GRK1 (human)) of 100%. The per cent of control (MAPK6 (human)) was 94%, the per cent of control (STK10 (human)) was 0% and the per cent of control (SRPK2 (human)) was 100%. It also gave a per cent of control (TEC (human)) of 100%, a per cent of control (MAP4K3 (human)) of 48% and a per cent of control (PAK4 (human)) of 100%. The per cent of control (CAMK1D (human)) was 88%, the per cent of control (HCK (human)) was 14% and the per cent of control (EPHA8 (human)) was 0.9%. It also gave a per cent of control (MAP4K4 (human)) of 8.7%, a per cent of control (MAP3K1 (human)) of 89% and a per cent of control (LIMK1 (human)) of 7.6%. The per cent of control (CDK11B (human)) was 93%, the per cent of control (INSRR (human)) was 86% and the per cent of control (CDK3 (human)) was 41%. It also gave a per cent of control (CSNK1E (human)) of 99%, a per cent of control (SBK1 (human)) of 100% and a per cent of control (IRAK3 (human)) of 76%. It also gave a per cent of control (PTK2B (human)) of 99%, a per cent of control (CHUK (human)) of 93% and a per cent of control (PTK2 (human)) of 100%. It also gave a per cent of control (CSNK1G3 (human)) of 100%, a per cent of control (PIM1 (human)) of 100% and a per cent of control (NEK9 (human)) of 48%. For the same compound, the per cent of control (IRAK4 (human)) was 100%, the per cent of control (MAP2K7 (human)) was 92% and the per cent of control (ACVR1 (human)) was 100%.
